US20260262643A1, “HERBICIDAL BENZOXAZINES” (FMC CORPORATION, priority 2022, published 2026)

What was measured:
barnyardgrass [1] = assay: Test C preemergence; format: in vivo, Echinochloa crusgalli; details: 0 to 100 scale (0 no effect, 100 complete control); for Barnyardgrass plant response rating: 125 g ai/ha, preemergence; for Plant response rating, Barnyardgrass: Preemergence, 500 g ai/ha, visual rating after 10 days
Outline: (§1)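 Test material, in non-phytotoxic solvent with surfactant, was sprayed on the soil directly after seeding (preemergence) or on young plants of 2–10 cm with one to two leaves (postemergence). Greenhouse, 10 days; 0–100 visual control scale.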

blackgrass [2] = assay: Test C preemergence; format: in vivo, Alopecurus myosuroides; details: 0 to 100 scale (0 no effect, 100 complete control); for Plant response rating, Blackgrass: Preemergence, 500 g ai/ha, visual rating after 10 days; for Blackgrass plant response rating: Test C, preemergence, 125 g ai/ha
Outline: as §1

corn [3] = assay: Test C preemergence; format: in vivo, Zea mays; details: 0 to 100 scale (0 no effect, 100 complete control); for Plant response rating, Corn: Preemergence, 500 g ai/ha, visual rating after 10 days; for Corn plant response rating: Test C, preemergence, 125 g ai/ha
Outline: as §1

green foxtail [4] = assay: Test C preemergence; format: in vivo, Setaria viridis; details: 0 to 100 scale (0 no effect, 100 complete control); for Plant response rating, Foxtail, Green: Preemergence, 500 g ai/ha, visual rating after 10 days; for Foxtail, Green plant response rating: Test C, preemergence, 125 g ai/ha
Outline: as §1

kochia [5] = assay: Test C preemergence; format: in vivo, Bassia scoparia; details: 0 to 100 scale (0 no effect, 100 complete control); for Plant response rating, Kochia: Preemergence, 500 g ai/ha, visual rating after 10 days; for Kochia plant response rating: Test C, preemergence, 125 g ai/ha
Outline: as §1

oat, wild [6] = assay: Test C preemergence; format: in vivo, Avena fatua; details: 0 to 100 scale (0 no effect, 100 complete control); for Plant response rating, Oat, Wild: Preemergence, 500 g ai/ha, visual rating after 10 days; for Oat, Wild plant response rating: Test C, preemergence, 125 g ai/ha
Outline: as §1

pigweed, palmer [7] = assay: Test C preemergence; format: in vivo, Amaranthus palmeri; details: 0 to 100 scale (0 no effect, 100 complete control); for Plant response rating, Pigweed, Palmer: Preemergence, 500 g ai/ha, visual rating after 10 days; for Pigweed, Palmer plant response rating: Test C, preemergence, 125 g ai/ha
Outline: as §1

ragweed [8] = assay: Test C preemergence; format: in vivo, Ambrosia artemisiifolia; details: 0 to 100 scale (0 no effect, 100 complete control); for Plant response rating, Ragweed: Preemergence, 500 g ai/ha, visual rating after 10 days; for Ragweed plant response rating: Test C, preemergence, 125 g ai/ha
Outline: as §1

ryegrass, Italian [9] = assay: Test C preemergence; format: in vivo, Lolium multiflorum; details: 0 to 100 scale (0 no effect, 100 complete control); for Plant response rating, Ryegrass, Italian: Preemergence, 500 g ai/ha, visual rating after 10 days; for Ryegrass, Italian plant response rating: Test C, preemergence, 125 g ai/ha
Outline: as §1

soybean [10] = assay: Test C preemergence; format: in vivo, Glycine max; details: 0 to 100 scale (0 no effect, 100 complete control); for Plant response rating, Soybean: Preemergence, 500 g ai/ha, visual rating after 10 days; for Soybean plant response rating: Test C, preemergence, 125 g ai/ha
Outline: as §1

wheat [11] = assay: Test C preemergence; format: in vivo, Triticum aestivum; details: 0 to 100 scale (0 no effect, 100 complete control); for Plant response rating, Wheat: Preemergence, 500 g ai/ha, visual rating after 10 days; for Wheat plant response rating: Test C, preemergence, 125 g ai/ha
Outline: as §1

barnyardgrass [12] = assay: Test C postemergence; format: in vivo, Echinochloa crusgalli; details: 10 days
Outline: as §1

blackgrass [13] = assay: Test C postemergence; format: in vivo, Alopecurus myosuroides; details: 10 days
Outline: as §1

corn [14] = assay: Test C postemergence; format: in vivo, Zea mays; details: 10 days
Outline: as §1

green foxtail [15] = assay: Test C postemergence; format: in vivo, Setaria viridis; details: 10 days
Outline: as §1

kochia [16] = assay: Test C postemergence; format: in vivo, Bassia scoparia; details: 10 days
Outline: as §1

oat, wild [17] = assay: Test C postemergence; format: in vivo, Avena fatua; details: 10 days
Outline: as §1

pigweed, palmer [18] = assay: Test C postemergence; format: in vivo, Amaranthus palmeri; details: 10 days
Outline: as §1

ragweed [19] = assay: Test C postemergence; format: in vivo, Ambrosia artemisiifolia; details: 10 days
Outline: as §1

ryegrass, Italian [20] = assay: Test C postemergence; format: in vivo, Lolium multiflorum; details: 10 days
Outline: as §1

soybean [21] = assay: Test C postemergence; format: in vivo, Glycine max; details: 10 days
Outline: as §1

wheat [22] = assay: Test C postemergence; format: in vivo, Triticum aestivum; details: 10 days
Outline: as §1

galium = assay: Test C postemergence; format: in vivo, Galium aparine; details: 10 days
Outline: as §1

horseweed = assay: Test C postemergence; format: in vivo, Erigeron canadensis; details: 10 days
Outline: as §1

barnyardgrass [23] = assay: Test D flooded paddy test; format: in vivo, Echinochloa crus-galli; details: 250 g ai/ha, applied to paddy water, visual rating after 13 to 14 days, scale 0 to 100 (0 no effect, 100 complete control)
Outline: (§2)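 Visual ratings from 0, meaning no effect, to 100, meaning complete control, were assigned against untreated controls 13 to 14 days after compounds were added to the floodwater of pots kept 3 cm deep, with plants at the 2-leaf stage.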

ducksalad = assay: Test D flooded paddy test; format: in vivo, Heteranthera limosa; details: 250 g ai/ha, applied to paddy water, visual rating after 13 to 14 days, scale 0 to 100 (0 no effect, 100 complete control)
Outline: as §2

rice = assay: Test D flooded paddy test; format: in vivo, Oryza sativa; details: 250 g ai/ha, applied to paddy water, visual rating after 13 to 14 days, scale 0 to 100 (0 no effect, 100 complete control)
Outline: as §2

sedge, umbrella = assay: Test D flooded paddy test; format: in vivo, Cyperus difformis; details: 250 g ai/ha, applied to paddy water, visual rating after 13 to 14 days, scale 0 to 100 (0 no effect, 100 complete control)
Outline: as §2

[24] = 125 g ai/ha, postemergence, 0 to 100 scale, 0 no effect, 100 complete control
[25] = Postemergence, 500 g ai/ha, visual 0 to 100 scale (0 no effect, 100 complete control)

C[C@H]1CN(C(=O)c2cccc(-n3cnc(C(C)(C)O)n3)c2)c2cccc(Cl)c2O1 [Compound 169]
Barnyardgrass plant response rating (barnyardgrass [1]): 80
Plant response rating, Barnyardgrass (barnyardgrass [1]): 100
Plant response rating, Blackgrass (blackgrass [2]): 90
Blackgrass plant response rating (blackgrass [2]): 90
Plant response rating, Corn (corn [3]): 40
Corn plant response rating (corn [3]): 0
Plant response rating, Foxtail, Green (green foxtail [4]): 100
Foxtail, Green plant response rating (green foxtail [4]): 100
Plant response rating, Kochia (kochia [5]): 100
Kochia plant response rating (kochia [5]): 100
Plant response rating, Oat, Wild (oat, wild [6]): 90
Oat, Wild plant response rating (oat, wild [6]): 80
Plant response rating, Pigweed, Palmer (pigweed, palmer [7]): 100
Pigweed, Palmer plant response rating (pigweed, palmer [7]): 100
Plant response rating, Ragweed (ragweed [8]): 100
Ragweed plant response rating (ragweed [8]): 50
Plant response rating, Ryegrass, Italian (ryegrass, Italian [9]): 100
Ryegrass, Italian plant response rating (ryegrass, Italian [9]): 90
Plant response rating, Soybean (soybean [10]): 90
Soybean plant response rating (soybean [10]): 90
Plant response rating, Wheat (wheat [11]): 90
Wheat plant response rating (wheat [11]): 30
Plant response rating, Barnyardgrass (barnyardgrass [12]; [24]): 20
Plant response rating, Barnyardgrass (barnyardgrass [12]; [25]): 70
Plant response rating, Blackgrass (blackgrass [13]; [24]): 90
Plant response rating, Blackgrass (blackgrass [13]; [25]): 100
Plant response rating, Corn (corn [14]; [24]): 80
Plant response rating, Corn (corn [14]; [25]): 90
Plant response rating, Foxtail, Green (green foxtail [15]; [24]): 30
Plant response rating, Foxtail, Green (green foxtail [15]; [25]): 90
Plant response rating, Kochia (kochia [16]; [24]): 90
Plant response rating, Kochia (kochia [16]; [25]): 90
Plant response rating, Oat, Wild (oat, wild [17]; [24]): 80
Plant response rating, Oat, Wild (oat, wild [17]; [25]): 90
Plant response rating, Pigweed, Palmer (pigweed, palmer [18]; [24]): 70
Plant response rating, Pigweed, Palmer (pigweed, palmer [18]; [25]): 90
Plant response rating, Ragweed (ragweed [19]; [24]): 50
Plant response rating, Ragweed (ragweed [19]; [25]): 90
Plant response rating, Ryegrass, Italian (ryegrass, Italian [20]; [24]): 60
Plant response rating, Ryegrass, Italian (ryegrass, Italian [20]; [25]): 100
Plant response rating, Soybean (soybean [21]; [24]): 100
Plant response rating, Soybean (soybean [21]; [25]): 100
Plant response rating, Wheat (wheat [22]; [24]): 6
Plant response rating, Wheat (wheat [22]; [25]): 90
Plant response rating, Galium (galium; [24]): 100
Plant response rating, Galium (galium; [25]): 100
Plant response rating, Horseweed (horseweed; [24]): 0
Plant response rating, Horseweed (horseweed; [25]): 40
Plant response rating, Barnyardgrass (Flood) (barnyardgrass [23]): 0
Plant response rating, Ducksalad (Flood) (ducksalad): 90
Plant response rating, Rice (Flood) (rice): 0
Plant response rating, Sedge, Umbrella (Flood) (sedge, umbrella): 85

Cc1ccc(-n2cnc(C(C)C)n2)cc1C(=O)N1C[C@H](C)Oc2c1cccc2C(F)(F)F [Compound 170]
Plant response rating, Barnyardgrass (barnyardgrass [1]): 100
Barnyardgrass plant response rating (barnyardgrass [1]; Test C): 90
Plant response rating, Blackgrass (blackgrass [2]): 80
Blackgrass plant response rating (blackgrass [2]): 50
Plant response rating, Corn (corn [3]): 20
Corn plant response rating (corn [3]): 20
Plant response rating, Foxtail, Green (green foxtail [4]): 100
Foxtail, Green plant response rating (green foxtail [4]): 100
Plant response rating, Kochia (kochia [5]): 100
Kochia plant response rating (kochia [5]): 90
Plant response rating, Oat, Wild (oat, wild [6]): 80
Oat, Wild plant response rating (oat, wild [6]): 60
Plant response rating, Pigweed, Palmer (pigweed, palmer [7]): 100
Pigweed, Palmer plant response rating (pigweed, palmer [7]): 100
Plant response rating, Ragweed (ragweed [8]): 70
Ragweed plant response rating (ragweed [8]): 20
Plant response rating, Ryegrass, Italian (ryegrass, Italian [9]): 100
Ryegrass, Italian plant response rating (ryegrass, Italian [9]): 80
Plant response rating, Soybean (soybean [10]): 100
Soybean plant response rating (soybean [10]): 70
Plant response rating, Wheat (wheat [11]): 90
Wheat plant response rating (wheat [11]): 50
Plant response rating, Barnyardgrass (barnyardgrass [12]; [24]): 20
Plant response rating, Barnyardgrass (barnyardgrass [12]; [25]): 50
Plant response rating, Blackgrass (blackgrass [13]; [24]): 30
Plant response rating, Blackgrass (blackgrass [13]; [25]): 80
Plant response rating, Corn (corn [14]; [24]): 30
Plant response rating, Corn (corn [14]; [25]): 50
Plant response rating, Foxtail, Green (green foxtail [15]; [24]): 20
Plant response rating, Foxtail, Green (green foxtail [15]; [25]): 90
Plant response rating, Kochia (kochia [16]; [24]): 80
Plant response rating, Kochia (kochia [16]; [25]): 100
Plant response rating, Oat, Wild (oat, wild [17]; [24]): 20
Plant response rating, Oat, Wild (oat, wild [17]; [25]): 60
Plant response rating, Pigweed, Palmer (pigweed, palmer [18]; [24]): 100
Plant response rating, Pigweed, Palmer (pigweed, palmer [18]; [25]): 100
Plant response rating, Ragweed (ragweed [19]; [24]): 70
Plant response rating, Ragweed (ragweed [19]; [25]): 90
Plant response rating, Ryegrass, Italian (ryegrass, Italian [20]; [24]): 60
Plant response rating, Ryegrass, Italian (ryegrass, Italian [20]; [25]): 90
Plant response rating, Soybean (soybean [21]; [24]): 100
Plant response rating, Soybean (soybean [21]; [25]): 100
Plant response rating, Wheat (wheat [22]; [24]): 10
Plant response rating, Wheat (wheat [22]; [25]): 50
Plant response rating, Galium (galium; [24]): 100
Plant response rating, Galium (galium; [25]): 100
Plant response rating, Horseweed (horseweed; [24]): 80
Plant response rating, Horseweed (horseweed; [25]): 90
Plant response rating, Barnyardgrass (Flood) (barnyardgrass [23]): 0
Plant response rating, Ducksalad (Flood) (ducksalad): 55
Plant response rating, Rice (Flood) (rice): 15
Plant response rating, Sedge, Umbrella (Flood) (sedge, umbrella): 95
